According to patent US8895585B2, “Nicotinamide derivative or salt thereof” (FUJIFILM Corporation, priority 2010, dated 2014):
Like-named read-outs stand apart in the source and are kept apart here.

Molecular target: T1, glutathione S-transferase (GST)-fused full-length human Syk protein (Homo sapiens, UniProt P43405)
T1 construct: (GST)-fused full-length human Syk protein; GST (glutathione S-transferase); purchased Carna Biosciences
Test: Syk enzyme assay
Format: biochemical
How it was run: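 IC50 values come from a time-resolved FRET readout (615 and 665 nm) of substrate phosphorylation, measured after an EDTA stop and 1 h antibody binding. The kinase reaction ran 40 min at room temperature with 27 μM ATP and 0.4 μM biotin-peptide, following a 15 min compound preincubation with baculovirus-made GST-full-length human Syk.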

[1] = Syk enzyme assay, Test Example 1, read-out: IC50 of Syk-inhibitory activity
[2] = read-out: Syk-inhibitory activity (IC50)

| Structure (SMILES) | IC50 [1] | IC50 [2] |
| --- | --- | --- |
| NC(=O)c1cc(F)c(N[C@@H]2CCCC[C@@H]2N)nc1Nc1ccnc(CO)c1 (relative stereo) [Example 004-194, 6-(cis-2-aminocyclohexylamino)-5-fluoro-2-((2-(hydroxymethyl)pyridin-4-yl)amino)nicotinamide] | 10 to 50 nM | – |
| NC(=O)c1cc(F)c(N[C@@H]2CCCC[C@@H]2N)nc1Nc1ccc2nc(OCCCN3CCCC3=O)ccc2c1 (relative stereo) [Example 004-200, 6-(cis-2-aminocyclohexylamino)-5-fluoro-2-((2-(3-(2-oxopyrrolidin-1-yl)propoxy)quinolin-6-yl)amino)nicotinamide] | < 10 nM | – |
| NC(=O)c1cc(F)c(N[C@@H]2CCCC[C@@H]2N)nc1Nc1ccc2nc(-n3nccn3)ccc2c1 (relative stereo) [Example 004-202, 2-((2-(2H-1,2,3-triazol-2-yl)quinolin-6-yl)amino)-6-(cis-2-aminocyclohexylamino)-5-fluoronicotinamide] | < 10 nM | – |
| NC(=O)c1cc(F)c(N[C@@H]2CCCC[C@@H]2N)nc1Nc1ccc2nc(-n3cccn3)ccc2c1 (relative stereo) [Example 004-203, 2-((2-(1H-pyrazol-1-yl)quinolin-6-yl)amino)-6-(cis-2-aminocyclohexylamino)-5-fluoronicotinamide] | < 10 nM | – |
| NC(=O)c1cc(F)c(N[C@@H]2CCCC[C@@H]2N)nc1Nc1cncc(-c2cccc(F)c2F)c1 (relative stereo) [Example 004-204, 6-(cis-2-aminocyclohexylamino)-2-((5-(2,3-difluorophenyl)pyridin-3-yl)amino)-5-fluoronicotinamide] | < 10 nM | – |
| NC(=O)c1cc(F)c(N[C@@H]2CCCC[C@@H]2N)nc1Nc1cncc(-c2cc(F)ccc2F)c1 (relative stereo) [Example 004-205, 6-(cis-2-aminocyclohexylamino)-2-((5-(2,5-difluorophenyl)pyridin-3-yl)amino)-5-fluoronicotinamide] | < 10 nM | – |
| NC(=O)c1cc(F)c(N[C@@H]2CCCC[C@@H]2N)nc1Nc1cncc(-c2cccc(Cl)c2F)c1 (relative stereo) [Example 004-206, 6-(cis-2-aminocyclohexylamino)-2-((5-(3-chloro-2-fluorophenyl)pyridin-3-yl)amino)-5-fluoronicotinamide] | < 10 nM | – |
| NC(=O)c1cc(F)c(N[C@@H]2CCCC[C@@H]2N)nc1Nc1cncc(-c2cc(Cl)ccc2F)c1 (relative stereo) [Example 004-207, 6-(cis-2-aminocyclohexylamino)-2-((5-(5-chloro-2-fluorophenyl)pyridin-3-yl)amino)-5-fluoronicotinamide] | < 10 nM | – |
| NC(=O)c1cc(F)c(N[C@@H]2CCCC[C@@H]2N)nc1Nc1ccc2nc(-n3cccn3)cnc2c1 (relative stereo) [Example 004-208, 2-((2-(1H-pyrazol-1-yl)quinoxalin-6-yl)amino)-6-(cis-2-aminocyclohexylamino)-5-fluoronicotinamide] | < 10 nM | – |
| NC(=O)c1cc(F)c(N[C@@H]2CCCC[C@@H]2N)nc1Nc1cnc2cc(-n3nccn3)ccc2c1 (relative stereo) [Example 004-209, 2-((7-(2H-1,2,3-triazol-2-yl)quinolin-3-yl)amino)-6-(cis-2-aminocyclohexylamino)-5-fluoronicotinamide] | < 10 nM | – |
| NC(=O)c1cc(F)c(N[C@@H]2CCCC[C@@H]2N)nc1Nc1cnc2cc(-n3cccn3)ccc2c1 (relative stereo) [Example 004-210, 2-((7-(1H-pyrazol-1-yl)quinolin-3-yl)amino)-6-(cis-2-aminocyclohexylamino)-5-fluoronicotinamide] | < 10 nM | – |
| NC(=O)c1cc(F)c(N[C@@H]2CCCC[C@@H]2N)nc1Nc1cncc(-n2ccccc2=O)c1 (relative stereo) [Example 004-211, 6-(cis-2-aminocyclohexylamino)-5-fluoro-2-((2-oxo-2H-[1,3′-bipyridin]-5′-yl)amino)nicotinamide] | 100 to 1000 nM | – |
| NC(=O)c1cc(F)c(N[C@@H]2CCCC[C@@H]2N)nc1Nc1cnc(N2CCOCC2)c(F)c1 (relative stereo) [Example 004-216, 6-(cis-2-aminocyclohexylamino)-5-fluoro-2-((5-fluoro-6-morpholinopyridin-3-yl)amino)nicotinamide] | 10 to 50 nM | – |
| NC(=O)c1cc(F)c(N[C@@H]2CCCC[C@@H]2N)nc1Nc1cncc(-c2cccc(N3CCOCC3)c2)c1 (relative stereo) [Example 004-221, 6-(cis-2-aminocyclohexylamino)-5-fluoro-2-((5-(3-morpholinophenyl)pyridin-3-yl)amino)nicotinamide] | < 10 nM | – |
| NC(=O)c1cc(F)c(N[C@@H]2CCCC[C@@H]2N)nc1Nc1cncc(-c2cccc(N3CCCC3=O)c2)c1 (relative stereo) [Example 004-225, 6-(cis-2-aminocyclohexylamino)-5-fluoro-2-((5-(3-(2-oxopyrrolidin-1-yl)phenyl)pyridin-3-yl)amino)nicotinamide] | 10 to 50 nM | – |
| COc1cccc(-c2cncc(Nc3nc(N[C@@H]4CCCC[C@@H]4N)c(F)cc3C(N)=O)c2)n1 (relative stereo) [Example 004-230, 6-((cis-2-aminocyclohexyl)amino)-5-fluoro-2-((6-methoxy-[2,3′-bipyridin]-5′-yl)amino)nicotinamide] | 10 to 50 nM | – |
| COc1ccc(-c2cncc(Nc3nc(N[C@@H]4CCCC[C@@H]4N)c(F)cc3C(N)=O)c2)cn1 (relative stereo) [Example 004-231, 6-((cis-2-aminocyclohexyl)amino)-5-fluoro-2-((6′-methoxy-[3,3′-bipyridin]-5-yl)amino)nicotinamide] | 10 to 50 nM | – |
| COc1cc(-c2cncc(Nc3nc(N[C@@H]4CCCC[C@@H]4N)c(F)cc3C(N)=O)c2)ccn1 (relative stereo) [Example 004-232, 6-((cis-2-aminocyclohexyl)amino)-5-fluoro-2-((2′-methoxy-[3,4′-bipyridine]-5-yl)amino)nicotinamide] | < 10 nM | – |
| COc1ccc(Nc2nc(N[C@@H]3CCCC[C@@H]3N)c(F)cc2C(N)=O)c2cccnc12 (relative stereo) [Example 6-67, 6-(cis-2-aminocyclohexylamino)-5-fluoro-2-((8-methoxyquinolin-5-yl)amino)nicotinamide] | – | ≤ 1000 nM |
| NC(=O)c1cc(F)c(N[C@@H]2CCCC[C@@H]2N)nc1Nc1cccc2nsnc12 (relative stereo) [Example 6-68, 6-(cis-2-aminocyclohexylamino)-2-(benzo[c][1,2,5]thiadiazol-4-ylamino)-5-fluoronicotinamide] | – | ≤ 1000 nM |

Further lines, results first:

| IC50 [1] | IC50 [2] | Structure (SMILES) |
| --- | --- | --- |
| < 10 nM | – | Cn1ccc2c(Nc3nc(N[C@@H]4CCCC[C@@H]4N)c(F)cc3C(N)=O)cccc21 (relative stereo) [Example 006-059, 6-(cis-2-aminocyclohexylamino)-5-fluoro-2-((1-methyl-1H-indol-4-yl)amino)nicotinamide] |
| 100 to 1000 nM | – | Cn1cc2cccc(Nc3nc(N[C@@H]4CCCC[C@@H]4N)c(F)cc3C(N)=O)c2n1 (relative stereo) [Example 006-074, 6-(cis-2-aminocyclohexylamino)-5-fluoro-2-((2-methyl-2H-indazol-7-yl)amino)nicotinamide] |
| 10 to 50 nM | – | CN1CCc2ccc(Nc3nc(N[C@@H]4CCCC[C@@H]4N)c(F)cc3C(N)=O)cc2C1 (relative stereo) [Example 006-077, 6-(cis-2-aminocyclohexylamino)-5-fluoro-2-((2-methyl-1,2,3,4-tetrahydroisoquinolin-7-yl)amino)nicotinamide] |
| < 10 nM | – | NC(=O)c1cc(F)c(N[C@@H]2CCCC[C@@H]2N)nc1Nc1ccc2cn[nH]c2c1 (relative stereo) [Example 006-086, 6-(cis-2-aminocyclohexylamino)-5-fluoro-2-((1H-indazol-6-yl)amino)nicotinamide] |
| 10 to 50 nM | – | Cn1ccc2cc(-c3cncc(Nc4nc(N[C@@H]5CCCC[C@@H]5N)c(F)cc4C(N)=O)c3)ccc21 (relative stereo) [Example 006-091, 6-((cis-2-aminocyclohexyl)amino)-5-fluoro-2-((5-(1-methyl-1H-indol-5-yl)pyridin-3-yl)amino)nicotinamide] |
| 10 to 50 nM | – | NC(=O)c1cc(F)c(N[C@@H]2CCCC[C@@H]2N)nc1Nc1cncc(-n2ccnc2)c1 (relative stereo) [Example 006-127, 2-((5-(1H-imidazol-1-yl)pyridin-3-yl)amino)-6-((cis-2-aminocyclohexyl)amino)-5-fluoronicotinamide] |
| < 10 nM | – | NC(=O)c1cc(F)c(N[C@@H]2CCCC[C@@H]2N)nc1Nc1ccnc(-c2cc[nH]c2)c1 (relative stereo) [Example 006-131, 2-((2-(1H-pyrrol-3-yl)pyridin-4-yl)amino)-6-((cis-2-aminocyclohexyl)amino)-5-fluoronicotinamide] |
| 10 to 50 nM | – | Cc1ncc(Nc2nc(N[C@@H]3CCCC[C@@H]3N)c(F)cc2C(N)=O)cc1-n1ccnn1 (relative stereo) [Example 006-152, 6-((cis-2-aminocyclohexyl)amino)-5-fluoro-2-((6-methyl-5-(1H-1,2,3-triazol-1-yl)pyridin-3-yl)amino)nicotinamide] |
| 10 to 50 nM | – | NC(=O)c1cc(F)c(N[C@@H]2CCCC[C@@H]2N)nc1Nc1ccc(Nc2ccccc2)nc1 (relative stereo) [Example 006-164, 6-((cis-2-aminocyclohexyl)amino)-5-fluoro-2-((6-(phenylamino)pyridin-3-yl)amino)nicotinamide] |
| 50 to 100 nM | – | Cn1cc(Nc2nc(N[C@@H]3CCCC[C@@H]3N)c(F)cc2C(N)=O)cc(-n2ccnn2)c1=O (relative stereo) [Example 006-428, 6-((cis-2-aminocyclohexyl)amino)-5-fluoro-2-((1-methyl-6-oxo-5-(1H-1,2,3-triazol-1-yl)-1,6-dihydropyridin-3-yl)amino)nicotinamide] |
